Experiment [1] addresses T1, STING REF (Homo sapiens, UniProt Q86WV6).
T1 construct: expressed in transfected cells
Briefly: 293T STING digitonin reporter assay (REF haplotype). The class given is cell-based. To be noted: digitonin permeabilised 293T reporter cells. As for the experimental part:
Digitonin Assay with 293T Reporter Cells. The generation of 293T reporter cells stably expressing different STING protein haplotypes (WT, HAQ, REF, AQ, or Q) was described previously (Novotna et al, J. Med. Chem. 2019,62, 10676). The cells were seeded at a density of 250 000 cells per cm^2 into 96 well white poly(D-lysine) coated plates in 100 µL of DMEM with high glucose supplemented with 10% heat inactivated FBS. Next day, the medium was removed, and compounds were added in 3-fold serial dilutions in a digitonin buffer containing 50 mM HEPES (pH 7.0), 100 mM KCl, 3 mM MgClz, 0.1 mM DTT, 85 mM sucrose, 0.2% (w/w) BSA, 1 mM ATP, 0.1 mM GTP, and 10 µg/mL digitonin A. After 30 min incubation at 37 °C with 5% CO2, the digitonin buffer was removed, cells were washed once with 100 µL of the cultivation medium, and 100 µL of fresh medium was added to each well. The plates with cells were further incubated for 5 h at 37 °C with 5% CO2. Thereafter, 50 µL of the medium was removed, and 30 µL of Bright-Glo Luciferase Assay System reagent was added to each well. […] Nonlinear regression curve fit with standard slope was used for EC50 value calculations. The EC50 value represents CDN concentration that gives half-maximal response of firefly luciferase in the 293T reporter assay.

For experiment [2], the system named is AH1+ CD8+ T cells. Briefly: Induction of tumor specific AH1+ CD8 T cells in CT26 model (flow cytometry). Format: in vivo, BALB/c mice. Conditions: blood collected on day 14, i.t. treatment. The source says:
The induction of tumor specific AH1+ CD8 T cells was monitored in response to Compound 2.2 treatment. Blood immune cells were collected on day 14 and red blood cells were lysed using red blood cell lysis buffer. Immune cells were immunophenotyped using viability dye (Zombie NIR Fixable Viability Kit, BioLegend) and monoclonal antibodies: BUV395 rat anti-mouse CD19, BUV395 hamster anti-mouse CD49b, APC hamster anti-mouse CD3, BV605 rat anti-mouse CD4, BV510 rat anti-mouse CD8, (all BD Biosciences). Specific staining using MHC-I dextramer: PE labelled AH1 peptide ([…], Immudex) was performed according to the manufacturer's recommendation. Specific and control samples of unstained cells, positive control for dead cells (cells in PBS incubated for 10 min at 65 °C and further stained with a live/dead marker), fluorescence minus one (FMO) and isotype controls (ISO) were prepared. Samples were measured immediately without a fixation step in a single tube format using BD LSRFortessa flow cytometer (BD Biosciences) in 250 µl of FC buffer (PBS containing 5% FBS). Data was acquired using FACS Diva software (version 8.0.1, BD Biosciences). Debris was excluded by forward and side scatter gating followed by doublet and dead cell exclusion. […] The data were analyzed using FlowJo software (version 10, BD Biosciences) and expressed as a frequency (%) of parent population, i.e. CD3+ T cells.
(A flow cytometer gives signals particle by particle.)

Experiment [3] has as its system STING-dependent cytokine IP10 (CXCL10) in HCC1954 cells. The experiment can be described thus: IP10 (CXCL10) induction in HCC1954 cells. The class given is cell-based, human. Conditions: free Warhead CDN, no antibody. As for the experimental part:
HCC1954 and 293T reporter cells were cultured as previously described. HCC1954 cells, which naturally express both Her2 and TROP2, were seeded into collagen-coated 96-well plates at a density of 0.5×10^6 cells/ml (100 µl/well) in RPMI medium supplemented with 10% FBS and Penicillin/Streptomycin. The following day, the medium was completely removed, and serial dilutions of mAb2-CDN and mAb5-CDN conjugates in medium were added to the wells. Levels of the STING-dependent cytokine IP10 (CXCL10) induction were determined in the medium using ProcartaPlex Immunoassays after 24 hours of incubation following the manufacturer's protocol and measured on a MagPix instrument. […] Nonlinear regression curve fitting was applied for EC50 value calculations. The EC50 value represents the concentration of the payload CDN 2.2 conjugated to anti-Her2 mAb2 or anti-TROP2 mAb5 that results in half-maximal levels of IP-10. Twenty million 293T WT STING reporter cells were seeded into two T150 flasks, each containing 30 mL of DMEM with high glucose supplemented with 10% heat-inactivated FBS. One flask was designated for transfected cells, and the other served as a non-transfected control. After 24 hours, the cell culture medium was replaced with 27 mL of fresh media. […] A 50 µL mixture was transferred to white 96-well plates, and luminescence was measured using a TECAN reader.

Experiment [4] has as its system plasma cytokines. Briefly: In vivo plasma cytokine induction after single i.v. injection (multiplex ELISA, Luminex). Conditions: single i.v. 1.7mg/kg, Balb/C mice (Fig. 7). As for the experimental part:
Compound 3.3 was conjugated to the engineered light chain C110 and heavy chain C375 of anti-Her2 mAb (mAb3) as described above (mAb3-3.3). Furthermore, the compound was also conjugated to anti-Her2 mAb (mAb2) via inter-chain Cys (mAb2-3.3). A single intravenous injection of 5 mg/kg mAb2-3.3 (DAR 3.8) and 5 mg/kg mAb3-3.3 (DAR 3.6) was administered to Balb/C mice via tail vein injection. Blood samples were collected from the injected animals at 2, 4, 8, and 20 hours post-injection, and plasma cytokines were measured using multiplex ELISA (Luminex).
Compound 3.3 was conjugated to anti-TROP2 mAb4 via inter-chain Cys and to the engineered light chain C110 and heavy chain C375 of anti-TROP2 mAb5, as described above. […] Blood samples were collected from the injected animals at 2, 4, 8, and 20 hours post-injection, and plasma cytokines were measured using multiplex ELISA (Luminex).
For orientation: An ELISA detects its analyte on a solid surface through an enzyme-linked reagent.

As a reminder, the EC50 is the concentration needed to bring the measured effect to its halfway point.

T1 sequence (Q86WV6 whole entry): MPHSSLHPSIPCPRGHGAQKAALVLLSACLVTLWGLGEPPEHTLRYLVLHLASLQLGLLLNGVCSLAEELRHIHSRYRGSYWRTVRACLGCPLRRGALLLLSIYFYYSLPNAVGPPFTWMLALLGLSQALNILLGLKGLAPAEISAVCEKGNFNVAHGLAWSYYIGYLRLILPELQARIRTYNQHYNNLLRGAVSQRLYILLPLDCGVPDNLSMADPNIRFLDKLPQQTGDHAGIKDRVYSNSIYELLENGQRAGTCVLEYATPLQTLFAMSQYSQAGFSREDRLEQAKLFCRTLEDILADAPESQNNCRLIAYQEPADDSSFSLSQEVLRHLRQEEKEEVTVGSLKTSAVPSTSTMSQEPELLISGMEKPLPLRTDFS

Regarding `Nc1ncnc2c1ncn2[C@@H]1O[C@@H]2OCP(=O)(S)O[C@@H]3[C@H](F)[C@@H](COP(=O)(S)OC[C@H]2[C@H]1F)O[C@H]3n1cnc2c(=O)[nH]cnc21` (single isomer, unassigned) [Compound 2.2], the EC50 in experiment [1] amounted to 50 nM; in experiment [3], 1700 nM. Moreover, the “frequency of tumor specific CD8 T cell recognizing AH1 peptide compared to the vehicle arm” value in experiment [2] is given as “statistically significantly increased frequency”. Further, the plasma cytokine levels entry in experiment [4] is reported as “high plasma levels”.

(Values after EP4610267A1, “CYCLIC DINUCLEOTIDES AND CONJUGATES THEREOF WITH ANTIBODIES” (priority 2024, dated 2025).)
